Test results published in patent publication US20050159390A1, “Treatment and prevention of HIV and other viral infections” (priority 1998, published 2005).
Read-outs that look alike come from different tables or passages of the source.

Experiments:
HIV-1 IIIB = experiment: HIV-1 P24 output in activated human PBMCs, test solutions added post infection; type: cell-based; settings: repeat with further dilutions; dilution 1:1000
Protocol: In addition, a similar experiment was performed, except that test solutions were added post infection, at the time of plating into the triplicate wells.

HIV-1III B = experiment: HIV-1 P24 output in activated human PBMCs, test solution mixed with virus overnight, day 9; type: cell-based; settings: for inhibition at 5000 µg/mL (stock): Human immunodeficiency virus 1, PBMC, 216 h, read-out: Inhibition % of the control (P24 output)
Protocol: Research Grade Purified d-Galactose (CAT# g404, lot 117H00431, FW 180.2, Sigma Chemical Co., St. Louis, Mo.) was dissolved in saline at a concentration of 5 mg/ml. The solution was allowed to stand at room temperature for 15 minutes and mixed by vortex until the galactose was completely dissolved. The galactose solution was divided into two equal aliquots. Stabilizing solution (0.1 ml) was added to one aliquot, then vortexed and incubated at room temperature for 30 minutes. After mixing again, the mixture was centrifuged at 1500 g for 30 minutes and the supernatant was filtered through a 0.2 μm filter and transferred to a sterile 15 ml tube. The solution was sterilized by gamma radiation (2.5 mega RADs) with 15 minutes exposure. The aliquot without the stabilizing solution was labeled “1A” and the aliquot containing the stabilized solution was labeled “1B”. […] […] Control solutions were water.
One ml of each of the dilutions of the test solution or control was mixed with an equal volume of HIV-1III B (˜50 TCID50/2×10^5 cells) to infect activated human PBMCs overnight at 37° C. (3×10^5 cells/dilution). HIV-1III B is a laboratory-adapted strain. The cells then were washed and placed in culture media containing the indicated dilution of the test solution in triplicate wells ([…], ½ medium changes with media containing the indicated dilutions of test solution were made at ˜3 day intervals). The conditioned media were tested for HIV-1 P24 output on day 9 using the DuPont P24 assay kit. The control was infected PBMCs in the absence of test solutions. Results are shown in Table 9 and are measured as the Inhibition % of the control.

HIV-1IIIB = experiment: CEM-SS cell-based assay, inhibition of HIV-induced cell killing (XTT); settings: CEM-SS cells
CEM-SS cells = type: cell-based
Protocol: (§1) Cell Preparation: Prior to infection, CEM-SS cells were grown in complete tissue culture medium (RPMI 1640 medium with 10% heat-inactivated fetal bovine serum, 2 mM L-glutamine, 100 U/mL penicillin, 100 μg/mL streptomycin, 10 μg/mL gentamycin) and transferred to T-150 flasks. On the day preceding the assay, the cells were split 1:2 to assure the cells would be in an exponential growth phase at time of infection. On the day of assay, the cells were washed twice with tissue culture medium and resuspended in fresh tissue culture medium. […]
(§2) Tetrazolium dye staining of screening plates: After 6 days of incubation (37° C. with 5% CO2), the test plates were analyzed by staining with the tetrazolium dye XTT (2,3-b (2-methoxy-4-nitro-5-sulfophenyl)-2H-tetrazolium-5-carboxanilide). XTT-tetrazolium is metabolized by mitochondrial enzymes of metabolically active cells to a soluble formazan product, allowing the rapid quantitative analysis of the inhibition of HIV-induced cell killing by anti-HIV compounds. […] Plates were sealed with adhesive plate sealers and inverted several times to mix the soluble formazan product and the plate was read spectrophotometrically at 450 nm with a Molecular Devices Vmax plate reader. Indices such as % CPE Reduction (cytopathic effects), % Cell Viability, IC25, IC50, IC95, TC25, TC50, and TC95 and other indices were calculated. […]

PBMCs = type: cell-based, human
Protocol: For the standard PBMC assay, PHA-P stimulated cells from at least two normal donors were pooled, diluted in fresh medium to a final concentration of 1×10^6 cells/mL, and plated in the interior wells of a 96 well round bottom microplate at 50 μL/well (5×10^4 cells/well). Test drug dilutions were prepared at a 2× concentration in microfuge tubes and 100 μL of each concentration was placed in appropriate wells in a standard format. A predetermined dilution of virus stock was placed in each test well (50 μL, final MOI≅0.1). Wells with cells and virus alone were used for virus control. Separate plates were prepared identically without virus for drug cytotoxicity studies using an XTT assay system. […]
as §2, with “reader.” for “reader. Indices such as % CPE Reduction (cytopathic effects), % Cell Viability, IC25, IC50, IC95, TC25, TC50, and TC95 and other indices were calculated.”

HIV-1RF = experiment: CEM-SS cell-based assay, inhibition of HIV-induced cell killing (XTT); settings: CEM-SS cells
Protocol: as §1
Virus Preparation: Pre-tittered aliquots of HIV-1ROJO and HIV-1RF were removed from the freezer (−80° C.) and thawed to room temperature in a biological safety cabinet. The virus was resuspended and diluted into tissue culture medium such that the amount of virus added to each well in a volume of 50 μL will be the amount determined to give complete cell killing at 6 days post-infection.
Tetrazolium dye staining of screening plates: After 6 days of incubation (37° C. with 5% CO2), the test plates were analyzed by staining with the tetrazolium dye XTT (2,3-b (2-methoxy-4-nitro-5-sulfophenyl)-2H-tetrazolium-5-carboxanilide). XTT-tetrazolium is metabolized by mitochondrial enzymes of metabolically active cells to a soluble formazan product, allowing the rapid quantitative analysis of the inhibition of HIV-induced cell killing by anti-HIV compounds. […]

X4 strain LAI/IIIB = experiment: RT activity in infected PBMCs treated with carbohydrates; type: cell-based, HIV; settings: summary of Table 17
Protocol: Reverse Transcriptase Activity Assay: A microtiter based reverse transcriptase (RT) reaction was utilized as described by Buckheit et al., (1991), AIDS Research and Human Retroviruses, 7: 295-302. Tritiated thymidine triphosphate (3H-TTP) was suspended in distilled H2O at 5 Ci/mL. Poly rA and oligo dT were prepared as a stock solution which was kept at −20° C. RT reaction buffer was prepared fresh on a daily basis and contained 125 μL 1M EGTA, 125 μL dH2O, 110 μL 10% SDS, 50 μL 1M Tris (pH 7.4), 50 μL 1M DTT, and 40 μL 1M MgCl2. These three solutions were mixed together in a ratio of 2 parts 3H-TTP, 1 part poly rA:oligo dT, and 1 part reaction buffer. Ten microliters of this reaction mixture were placed in a round bottom microtiter plate and 15 μL of virus containing supernatant were added and mixed. The plate was incubated at 37° C. in a water bath with a solid support to prevent submersion of the plate and incubated for 60 minutes. […] Opti-Fluor-O (Packard) was added to each sample and incorporated radioactivity was quantified utilizing a Wallac 1450 MicroBeta Plus liquid scintillation counter. […]
No carbohydrates were added to the control sample. RT activity was determined at 3, 6, 9, 13, 17, and 20 days post-infection (PI) with X4 strain LAI/IIIB.

[1] = dilution 1:20 of 5 mg/ml solution
[2] = dilution 1:40 of 5 mg/ml solution
[3] = dilution 1:80 of 5 mg/ml solution
[4] = dilution 1:160 of 5 mg/ml solution
[5] = dilution 1:10 of 5 mg/ml solution

O=C(CO)N[C@H]1[C@H]([C@H](O)[C@H](O)CO)OC(O)(C(=O)O)C[C@@H]1O (single isomer, unassigned) [2A, N-glycolylneuraminic acid]
Inhibition % of Control (P24 output) (HIV-1 IIIB): 7%
inhibition at 5000 µg/mL (stock) (HIV-1III B; [1]): 78%
inhibition at 5000 µg/mL (stock) (HIV-1III B; [2]): 66%
inhibition at 5000 µg/mL (stock) (HIV-1III B; [3]): 41%
inhibition at 5000 µg/mL (stock) (HIV-1III B; [4]): 19%

O=C(CO)N[C@H]1[C@H]([C@H](O)[C@H](O)CO)OC(O)(C(=O)O)C[C@@H]1O (single isomer, unassigned) [2B, N-glycolylneuraminic acid]
Inhibition % of Control (P24 output) (HIV-1 IIIB): 1%
Inhibition % of the control (P24 output) (HIV-1III B; [2]): 61%

OC[C@H]1O[C@H](O[C@H]2[C@@H](O)[C@@H](CO)OC(O)[C@@H]2O)[C@H](O)[C@@H](O)[C@H]1O (single isomer, unassigned) [3A, galactose-α 1,3-galactose]
Inhibition % of the control (P24 output) (HIV-1III B; [1]): 3.6%
Inhibition % of the control (P24 output) (HIV-1III B; [2]): 2.2%
Inhibition % of the control (P24 output) (HIV-1III B; [3]): 1.4%
Inhibition % of the control (P24 output) (HIV-1III B; [4]): 0.4%

OC[C@H]1O[C@H](O[C@H]2[C@@H](O)[C@@H](CO)OC(O)[C@@H]2O)[C@H](O)[C@@H](O)[C@H]1O (single isomer, unassigned) [3B, galactose-α 1,3-galactose]
Inhibition % of the control (P24 output) (HIV-1III B; [5]): 4.6%
Inhibition % of the control (P24 output) (HIV-1III B; [1]): 3.6%
Inhibition % of the control (P24 output) (HIV-1III B; [2]): 1.8%
Inhibition % of the control (P24 output) (HIV-1III B; [3]): 1.1%
Inhibition % of the control (P24 output) (HIV-1III B; [4]): 0.5%

O=C[C@H](O)[C@@H](O)[C@@H](O)[C@H](O)CO [1A, d-Galactose]
inhibition at 5000 µg/mL (stock) (HIV-1III B; [5]): 4%
inhibition at 5000 µg/mL (stock) (HIV-1III B; [1]): 5%
inhibition at 5000 µg/mL (stock) (HIV-1III B; [2]): 4%
inhibition at 5000 µg/mL (stock) (HIV-1III B; [3]): 2%
inhibition at 5000 µg/mL (stock) (HIV-1III B; [4]): 2%

O=C[C@H](O)[C@@H](O)[C@@H](O)[C@H](O)CO [1B, d-Galactose]
Inhibition % of the control (P24 output) (HIV-1III B; [5]): 7%
Inhibition % of the control (P24 output) (HIV-1III B; [1]): 5%
Inhibition % of the control (P24 output) (HIV-1III B; [2]): 3%
Inhibition % of the control (P24 output) (HIV-1III B; [3]): 4%
Inhibition % of the control (P24 output) (HIV-1III B; [4]): 2%

Cc1cn([C@H]2C[C@H](N=[N+]=[N-])[C@@H](CO)O2)c(=O)[nH]c1=O [AZT, reference compound]
IC50 (HIV-1IIIB): 11 to 17 nM
CC50 (CEM-SS cells): > 1000 nM
CC50 (PBMCs): > 4000 nM
IC50 (HIV-1RF): 5 to 7 nM

CC(=O)N[C@H]1[C@H]([C@H](O)[C@H](O)CO)OC(O)(C(=O)O)C[C@@H]1O (stereo partly shown) [N-acetylneuraminic acid, reference compound]
RT activity in treated cells (in words) (X4 strain LAI/IIIB): decreased RT activity was observed only with high concentrations
